Where two headings read alike, the source gives them in different places. Each block holds one molecule with its values, some of them ahead of it.
How the values were obtained:
[1] = tested on: Barnyard grass (Echinochloa crusgalli L.); test: Herbicidal activity, foliar spraying (spectrum and SAR study); format: in vivo; conditions: for pest or weed control at 5000 µg/mL: Echinochloa crus-galli, 72 h, read-out: Efficacy of phytotoxic activity; for pest or weed control at 5000 µg/mL / Efficacy of phytotoxic activity: at least 3 days after spraying
Excerpt: (§1) All weed, sedge and crop seedlings were planted in 8 cm×8 cm×7.2 cm or 10 cm×10 cm×9 cm plastic pots. Seedlings including pigweed (Amaranthus retroflexus, L.), barnyard grass (Echinochloa crusgalli L.), bindweed (Convolvulus arvensis L.), crabgrass (Digitaria sanguinalis L.), dandelion (Taraxacum officinale F.), lambsquarters (Chenopodium album L.), bluegrass (Poa annua L.), wild mustard (Brassica kaber L.), black nightshade (Solanum nigrum L.), curly dock (Rumex crispus L.), horseweed (Conyza Canadensis L.), sweet corn (Zea may S.) and wheat PR 1404 (Triticum aestivum L.) were planted in Super Soil potting soil. Seedlings including rice M-104 (Oryza saliva L.), sedge (Cyperus difformis L.) and sprangletop (Leptochloa fascicularis Lam) were planted in mud which was collected from rice field (Woodland, Calif., USA). When treated, all seedlings were 15 days old except for rice (10 days), wheat (20 days), corn (20 days) sprangletop (20 days old), sedge (20 days old) and horse weed (70 days old).
(§2) Herbicidal activity of the active compound and synthesized compounds was evaluated by foliar spraying. Spraying carrier solution contained 2% ethanol, 0.2% glycosperse O-20 and 0.1% sodium lauryl sulfate. Freshly made solution with the evaluated compound at a concentration of 5 mg/mL was used. In the spectrum study, spraying volume was dependent on the foliar surface area, ranging from approximately 1 to 3 mL/pot plants. One or two pots of plants were treated for each. Number of pots was dependent on both foliar area and availability. In the structure-activity relationship study, one pot of barnyard grass was used and the spraying volume of each compound was 3 mL of 5 mg/mL.
(§3) The optimal concentration of sarmentine was 5 mg/mL for excellent control of barnyard grass (Figure 2). Therefore, such a concentration was subjected to herbicidal spectrum study. Due to the hydrophobic property of sarmentine, a carrier solution containing 0.2% glycosperse O-20, 2% ethanol and 0.1% sodium lauryl sulfate was used. Although this solution contains a high concentration of surfactants, sarmentine can stay suspended in this solution no more than 15 min. Therefore, sarmentine was made freshly just before spraying.

[2] = Suspension of sarmentine in spraying carrier solution; format: physicochemical; conditions: 0.2% glycosperse O-20, 2% ethanol and 0.1% sodium lauryl sulfate
Protocol: as §3

plants = test: Symptom of phytotoxic activity after spraying; format: in vivo; conditions: sarmentine solution
Protocol: as §2
Sarmentine is a contact phytotoxic compound. When plants were treated with sarmentine solution, slightly black tiny spots would first show on the leaves and then became bigger and bigger until they covered the whole leaves, especially obvious on the barnyard grass. […] This symptom was observed very similarly to that of middle-chain fatty acids such as decanoic acid (21, Table 4) and 2E-decenoic acid (22, Table 3) during the SAR study.

[3] = tested on: Wheat (PR 1404) (Triticum aestivum L.); test: Herbicidal spectrum, foliar spraying; format: in vivo; conditions: foliar spray 5 mg/mL
Excerpt: as §1, §2, §3

[4] = tested on: Curly dock (Rumex crispus L.); test: Herbicidal spectrum, foliar spraying; format: in vivo; conditions: foliar spray 5 mg/mL
Excerpt: as §1, §2, §3

[5] = tested on: Pigweed (Amaranthus retroflexus, L.); test: Herbicidal spectrum, foliar spraying; format: in vivo; conditions: foliar spray 5 mg/mL
Excerpt: as §1, §2, §3

[6] = tested on: Bindweed (Convolvulus arvensis, L.); test: Herbicidal spectrum, foliar spraying; format: in vivo; conditions: foliar spray 5 mg/mL
Excerpt: as §1, §2, §3

Bluegrass (Poa annua L.) = test: Herbicidal spectrum, foliar spraying; format: in vivo; conditions: foliar spray 5 mg/mL
Excerpt: as §1, §2, §3

[7] = tested on: Sedge (Cyperus difformis L.); test: Herbicidal spectrum, foliar spraying; format: in vivo; conditions: foliar spray 5 mg/mL
Excerpt: as §1, §2, §3

[8] = tested on: Sprangletop (Leptochloa fascicularis Lam.); test: Herbicidal spectrum, foliar spraying; format: in vivo; conditions: foliar spray 5 mg/mL
Excerpt: as §1, §2, §3

[9] = tested on: Lambsquarters (Chenopodium album L.); test: Herbicidal spectrum, foliar spraying; format: in vivo; conditions: foliar spray 5 mg/mL
Excerpt: as §1, §2, §3

[10] = tested on: Horse weed (Conyza Canadensis L.); test: Herbicidal spectrum, foliar spraying; format: in vivo; conditions: foliar spray 5 mg/mL
Excerpt: as §1, §2, §3

[11] = tested on: Crabgrass (Digitaria sanguinalis L.); test: Herbicidal spectrum, foliar spraying; format: in vivo; conditions: foliar spray 5 mg/mL
Excerpt: as §1, §2, §3

[12] = tested on: Rice (M 104) (Oryza saliva L); test: Herbicidal spectrum, foliar spraying; format: in vivo; conditions: foliar spray 5 mg/mL
Excerpt: as §1, §2, §3

[13] = tested on: Wild mustard (Brassica kaber L.); test: Herbicidal spectrum, foliar spraying; format: in vivo; conditions: foliar spray 5 mg/mL
Excerpt: as §1, §2, §3

[14] = tested on: Black nightshade (Solanum nigrum L.); test: Herbicidal spectrum, foliar spraying; format: in vivo; conditions: foliar spray 5 mg/mL
Excerpt: as §1, §2, §3

Sweet corn (Zea mays S.) = test: Herbicidal spectrum, foliar spraying; format: in vivo; conditions: foliar spray 5 mg/mL
Excerpt: as §1, §2, §3

[15] = tested on: Dandelion (Taraxacum officinale F.); test: Herbicidal spectrum, foliar spraying; format: in vivo; conditions: foliar spray 5 mg/mL
Excerpt: as §1, §2, §3

[16] = SAR study, one pot of barnyard grass, foliar spray 3 mL of 5 mg/mL
[17] = SAR study, barnyard grass, foliar spray 3 mL of 5 mg/mL
[18] = 15 days old, 1 to 3 mL/pot, at least 3 days after spraying
[19] = 20 days old, 1 to 3 mL/pot, at least 3 days after spraying

Molecule: CCCCC/C=C\C=C\C(=O)OCC [No 3]
- pest or weed control at 5000 µg/mL [1, 16]: < 20%

Molecule: CCCCCCCCCC(=O)NC1CCCC1 [No 4, N-Cyclopentyldecanamide]
- pest or weed control at 5000 µg/mL [1, 16]: < 20%

Molecule: CCCCC/C=C\C=C\C(=O)NC1CCCC1 [No 6, N-Cyclopentyl 2E,4Z-decadienamide]
- pest or weed control at 5000 µg/mL [1, 16]: < 20%

Molecule: O=C(/C=C/c1ccccc1)NC1CCCC1 [No 7, N-Cyclopentylcinnamamide]
- pest or weed control at 5000 µg/mL [1, 16]: < 20%

Molecule: CCCCCCCCCC(=O)N1CCCC1 [No 8, N-(Decanoyl)pyrrolidine]
- pest or weed control at 5000 µg/mL [1, 16]: 80 to 100%
- Phytotoxic activity relative to sarmentine / toxicity to barnyard grass (in words) [1, 17]: remained the same

Molecule: CCCCCCC/C=C/C(=O)N1CCCC1 [No 9, N-(Decenoyl)pyrrolidine]
- pest or weed control at 5000 µg/mL [1, 16]: 80 to 100%
- Phytotoxic activity relative to sarmentine / toxicity to barnyard grass (in words) [1, 17]: remained the same

Molecule: CCCCC/C=C\C=C\C(=O)N1CCCC1 [No 10, (2E,4Z-Decadienoyl)pyrrolidine]
- pest or weed control at 5000 µg/mL [1, 16]: 80 to 100%
- Phytotoxic activity relative to sarmentine / toxicity to barnyard grass (in words) [1, 17]: remained the same

Molecule: O=C(/C=C/c1ccccc1)N1CCCC1 [No 11, N-(trans-Cinnamoyl)pyrrolidine]
- pest or weed control at 5000 µg/mL [1, 16]: 80 to 100%
- Phytotoxic activity relative to sarmentine / toxicity to barnyard grass (in words) [1, 17]: remained the same

Molecule: CCCCCCCCCC(=O)N1CCCCC1 [No 12, N-(Decanoyl)piperidine]
- pest or weed control at 5000 µg/mL [1, 16]: 80 to 100%
- Phytotoxic activity relative to sarmentine / toxicity to barnyard grass (in words) [1, 17]: remained the same

Molecule: CCCCCCC/C=C/C(=O)N1CCCCC1 [No 13, N-(Decenoyl)piperidine]
- pest or weed control at 5000 µg/mL [1, 16]: 80 to 100%

Molecule: CCCCC/C=C\C=C\C(=O)N1CCCCC1 [No 14, (2E,4Z-Decadienoyl)piperidine]
- pest or weed control at 5000 µg/mL [1, 16]: 80 to 100%

Molecule: O=C(/C=C/c1ccccc1)N1CCCCC1 [No 15, N-(trans-Cinnamoyl)piperidine]
- pest or weed control at 5000 µg/mL [1, 16]: 40 to 60%

Molecule: CCCCCCCCCC(=O)N1CCCCCC1 [No 16, N-(Decanoyl)hexamethyleneimine]
- pest or weed control at 5000 µg/mL [1, 16]: 80 to 100%
- Phytotoxic activity relative to sarmentine / toxicity to barnyard grass (in words) [1, 17]: remained the same

Molecule: CCCCCCC/C=C/C(=O)N1CCCCCC1 [No 17, N-(Decenoyl)hexamethyleneimine]
- pest or weed control at 5000 µg/mL [1, 16]: 80 to 100%

Molecule: CCCCC/C=C\C=C\C(=O)N1CCCCCC1 [No 18, (2E,4Z-Decadienoyl)hexamethleneimine]
- pest or weed control at 5000 µg/mL [1, 16]: 80 to 100%

Molecule: O=C(/C=C/c1ccccc1)N1CCCCCC1 [No 19, N-(trans-Cinnamoyl) hexamethleneimine]
- pest or weed control at 5000 µg/mL [1, 16]: < 20%

Molecule: O=C(O)/C=C/c1ccccc1 [No 20, trans-cinnamic acid, reference compound]
- pest or weed control at 5000 µg/mL [1, 16]: 60 to 80%
- Phytotoxic activity relative to sarmentine / toxicity to barnyard grass (in words) [1, 17]: very active

Molecule: CCCCCCCCCC(=O)O [No 21, decanoic acid]
- pest or weed control at 5000 µg/mL [1, 16]: 80 to 100%
- Phytotoxic activity relative to sarmentine / toxicity to barnyard grass (in words) [1, 17]: very active

Molecule: CCCCCCC/C=C/C(=O)O [No 22, 2E-decenoic acid]
- pest or weed control at 5000 µg/mL [1, 16]: 80 to 100%
- Phytotoxic activity relative to sarmentine / toxicity to barnyard grass (in words) [1, 17]: very active

Molecule: NC1CCCC1 [No 23, cyclopentylamine, reference compound]
- Phytotoxic activity relative to sarmentine / toxicity to barnyard grass (in words) [1, 17]: non toxic
- Efficacy of phytotoxic activity [1, 16]: I

Molecule: C1CCNCC1 [No 25, piperidine, reference compound]
- Phytotoxic activity relative to sarmentine / toxicity to barnyard grass (in words) [1, 17]: non toxic
- Efficacy of phytotoxic activity [1, 16]: I

Molecule: C1CCCNCC1 [No 26, hexamethyleneimine, reference compound]
- Phytotoxic activity relative to sarmentine / toxicity to barnyard grass (in words) [1, 17]: non toxic
- Efficacy of phytotoxic activity [1, 16]: I

- Time sarmentine can stay suspended in carrier solution [2]: no more than 15 min
Molecule: CCCCC/C=C/C=C/C(=O)N1CCCC1 [sarmentine, N-(2E,4E-Decadienoyl) pyrrolidine]
- Time after spraying within which predominant phytotoxic activity happened (plants): ≤ 48 h
- Efficacy of phytotoxic activity ([3]; wheat PR 1404, 20 days old, 1 to 3 mL/pot, at least 3 days after spraying): VI (VI (80-100%))
- Phytotoxic activity (in words) ([3]; wheat): highly phytotoxic activity
- Efficacy of phytotoxic activity [4, 18]: VI (VI (80-100%))
- Phytotoxic activity (in words) [4]: highly phytotoxic activity
- Efficacy of phytotoxic activity [5, 18]: VI (VI (80-100%))
- Phytotoxic activity (in words) [5]: highly phytotoxic activity
- Efficacy of phytotoxic activity [6, 18]: VI (VI (80-100%))
- Phytotoxic activity (in words) [6]: highly phytotoxic activity
- Phytotoxic activity (in words) (Bluegrass (Poa annua L.); blue grass): highly phytotoxic activity
- Efficacy of phytotoxic activity (Bluegrass (Poa annua L.); bluegrass, 15 days old, 1 to 3 mL/pot, at least 3 days after spraying): VI (VI (80-100%))
- Efficacy of phytotoxic activity [7, 19]: III (III (20-40%))
- Phytotoxic activity (in words) [7]: Slightly phytotoxic activity
- Efficacy of phytotoxic activity [8, 19]: VI (VI (80-100%))
- Phytotoxic activity (in words) [8]: highly phytotoxic activity
- Efficacy of phytotoxic activity [9, 18]: VI (VI (80-100%))
- Phytotoxic activity (in words) [9]: highly phytotoxic activity
- Efficacy of phytotoxic activity ([10]; horse weed, 70 days old, 1 to 3 mL/pot, at least 3 days after spraying): II (II (<20%))
- Phytotoxic activity (in words) ([10]; horseweed (70-day-old)): Slightly phytotoxic activity
- Efficacy of phytotoxic activity [11, 18]: VI (VI (80-100%))
- Phytotoxic activity (in words) [11]: highly phytotoxic activity
- Efficacy of phytotoxic activity ([12]; rice M-104, 10 days old, 1 to 3 mL/pot, at least 3 days after spraying): I
- Phytotoxic activity (in words) ([12]; rice plants, after 10 days): No visible phytotoxic activity
- Efficacy of phytotoxic activity [13, 18]: VI (VI (80-100%))
- Phytotoxic activity (in words) [13]: highly phytotoxic activity
- Efficacy of phytotoxic activity [14, 18]: VI (VI (80-100%))
- Phytotoxic activity (in words) [14]: highly phytotoxic activity
- Efficacy of phytotoxic activity (Sweet corn (Zea mays S.); [19]): VI (VI (80-100%))
- Phytotoxic activity (in words) (Sweet corn (Zea mays S.)): highly phytotoxic activity
- Efficacy of phytotoxic activity [15, 18]: VI (VI (80-100%))
- Phytotoxic activity (in words) [15]: highly phytotoxic activity
- pest or weed control at 5000 µg/mL ([1]; spectrum study, barnyard grass, 15 days old, foliar spray 5 mg/mL, 1 to 3 mL/pot): 80 to 100%
- Efficacy of phytotoxic activity [1, 16]: VI (VI (80-100%))
- Optimal concentration for excellent control of barnyard grass ([1]; foliar spraying, Figure 2): 5 mg/mL
- Phytotoxic activity (in words) ([1]; spectrum study, barnyard grass, foliar spray 5 mg/mL): highly phytotoxic activity

Molecule: pyrrolidine [No 24, reference compound]
- Phytotoxic activity relative to sarmentine / toxicity to barnyard grass (in words) [1, 17]: non toxic
- Efficacy of phytotoxic activity [1, 16]: I
